The results in this text go back to patent US4889862A, “Freeze-dried pharmaceutical compositions of phenylquinoline carboxylic acids” (E. I. Du Pont de Nemours and Company, priority 1987, dated 1989).

The term LD50 denotes the dose expected to kill half of the subjects tested.

In series [1] the test system is L1210 leukemia. Kind of series: In vivo antitumor activity against L1210 leukemia in mice (survival time). Details: species or system CDF1 mice; L1210 murine leukemia. Particulars: for Survival Time: % T/C (mean day of death treated/control × 100): intraperitoneal. Here is the method: Then distilled water (4 ml) was added to the above to make 50 mg/kg solution. Serial two-fold dilutions were made in distilled water from the 50 mg/kg solution for the remaining three concentrations. An unformulated control solution was prepared by dissolving the title compound in distilled water and was used while it remained clear.
The test was carried out as follows. On day 0, CDF1 mice were injected with 1×10^5 L1210 murine leukemia cells intraperitoneally. On day 1 formulated and unformulated title compound were injected intraperitoneally and the injections continued, once daily through day 9. Mice were observed until death.

Series [2] in a line: in vivo. Here is the method:
A comparative test was performed on the title compound to evaluate possible lethality differences between compositions described herein and compositions prepared by dissolving in water. […] Following compound administration, mortality was evaluated twice daily for 14 days.

`Cc1c(-c2ccc(-c3ccccc3F)cc2)nc2ccc(F)cc2c1C(=O)[O-].[Na+]`: the “Survival Time: % T/C (mean day of death treated/control × 100)” value in series [1] (6.25 mg/kg/day × 9 days) amounted to 156%; in series [1] (12.5 mg/kg/day × 9 days), 167%; in series [1] (25 mg/kg/day × 9 days), 169%; in series [1] (50 mg/kg/day × 9 days) it was 89%. In addition, the “effect of sodium cholate and glycine on antitumor activity” value in series [1] (formulated vs unformulated) is recorded as “no effect on the antitumor activity”. Also, the LD50 at 336 h in series [2] (mouse, in vivo) turned out to be 156 mg/kg. In addition, in series [2] (vehicle D.I. H2O, pH = 8.5, single parenteral dose, female mice), the “Slope of the response curve” value is reported as 1.18.
